Here are results for 11 compounds from patent US20250277012A1 (Protagonist Therapeutics, Inc., priority 2021, published 2025).

Where two headings read alike, the source gives them in different places. Positions of bridges follow the written chain, without caps; N, C: chain ends. Non-standard residues stand in square brackets, D forms with d. Residues, ends and D or L forms follow the SMILES beside them. Groups on a side chain read outwards from the residue. *: point of attachment. X1 = C[N+](C)(CCNC(=O)CCCCCCCCCCCCCCCCC(=O)O)CC(=O)*; C18 diacid = O=C(O)CCCCCCCCCCCCCCCCC(=O)*; Dip = N[C@H](C(=O)O)C(c1ccccc1)c1ccccc1; 1Nal = N[C@@H](Cc1cccc2ccccc12)C(=O)O; Palmitoyl = CCCCCCCCCCCCCCCC(=O)*; NMeF = CN[C@@H](Cc1ccccc1)C(=O)O; NMeI = CC[C@H](C)[C@H](NC)C(=O)O; β3hF = N[C@H](CC(=O)O)Cc1ccccc1; NMeK = CN[C@@H](CCCCN)C(=O)O; Isovaleryl = CC(C)CC(=O)*; Dap = NC[C@H](N)C(=O)O; AEEA = NCCOCCOCC(=O)O; Inp = O=C(O)C1CCNCC1; Ahx = NCCCCCC(=O)O Bounds are passed on as bounds.

One may read the IC50 as the concentration that inhibits the measured activity by half.

Assay [1] deals with T1, ferroportin (Homo sapiens, UniProt Q9NP59).
T1 sequence (Q9NP59 1-571): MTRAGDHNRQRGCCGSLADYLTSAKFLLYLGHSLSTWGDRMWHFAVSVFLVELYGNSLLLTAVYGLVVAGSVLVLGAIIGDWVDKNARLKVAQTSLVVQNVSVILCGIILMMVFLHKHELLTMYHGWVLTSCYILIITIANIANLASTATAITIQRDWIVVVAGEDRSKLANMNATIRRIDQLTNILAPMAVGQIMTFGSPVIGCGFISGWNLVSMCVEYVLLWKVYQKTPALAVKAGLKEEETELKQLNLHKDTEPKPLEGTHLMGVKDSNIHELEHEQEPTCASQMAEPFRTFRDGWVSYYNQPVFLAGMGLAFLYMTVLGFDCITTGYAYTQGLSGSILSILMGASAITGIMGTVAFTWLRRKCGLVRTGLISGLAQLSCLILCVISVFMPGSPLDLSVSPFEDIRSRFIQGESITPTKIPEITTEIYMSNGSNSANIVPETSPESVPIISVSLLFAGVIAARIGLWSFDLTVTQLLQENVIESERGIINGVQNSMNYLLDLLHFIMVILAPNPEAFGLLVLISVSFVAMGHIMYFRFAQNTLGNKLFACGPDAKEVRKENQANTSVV
The experiment in a line: FPN activity assay: ferroportin-GFP internalization/degradation in HEK293 cells. The format is cell-based. Set-up: expressed in transfected cells. The conditions noted are these: read-out: FPN IC50. The method, then:
Following internalization, the ferroporin protein is degraded.
A retro inverse peptide is a peptide with a reversed sequence in all D amino acids. An example is that Hy-Glu-Thr-His-NH2 becomes Hy-DHis-DThr-DGlu-NH2. The EC50 of these reference compounds for ferroportin internalization/degradation was determined according to the FPN activity assay described above. These peptides served as control standards.

Assay [2] concerns the target T1, ferroportin. The assay can be described thus: T47D cell-based ferroportin internalization assay in presence of mouse serum albumin (MSA). Set-up: a human breast carcinoma adherent cell line which endogenously expresses ferroportin; host or cells: T47D. The method, boiled down: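 Peptide potency for inducing ferroportin internalization was measured in T47D cells in the presence of serum albumin. Cells grown in RPMI with fetal bovine serum were seeded in 96-well plates at 80-100 k cells per well in 100 ul and rested overnight. Dilution series of test peptides were preincubated 30 min at room temperature, then added to the cells after the medium was aspirated.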

The mark [3] stands for this setting: ferroportin-GFP internalization/degradation, HEK293 cells, Table 6E.
Setting [4] is: T47D internalization assay in presence of mouse serum albumin (MSA), Table 6E.
The mark [5] stands for this setting: Table 6E, ferroportin-GFP internalization/degradation, at least 18 hours incubation.
Where [6] appears, read: Table 6E, T47D internalization assay with MSA.
Where [7] appears, read: ferroportin-GFP HEK293 cells, at least 18 hours.
Setting [8] is: T47D cells, 0.5% mouse serum albumin, 1 hr incubation.

Turning to `COC(=O)CC[C@H](NC(=O)CC(C)C)C(=O)N[C@H](C(=O)N[C@@H](Cc1c[nH]cn1)C(=O)N[C@H](C(=O)N1CCC[C@H]1C(=O)N[C@H]1CSSC[C@@H](C(=O)N(C)[C@@H](CCCCNC(=O)CCCCCNC(=O)C[N+](C)(C)CCNC(=O)CCCCCCCCCCCCCCCCC(=O)O)C(=O)N[C@H](C(=O)N[C@H](CCCCN)C(N)=O)C(c2ccccc2)c2ccccc2)NC1=O)C(c1ccccc1)c1ccccc1)[C@@H](C)O` [compound 232] (Isovaleryl-E(OMe)TH[Dip]PCC[NMeK]([Ahx-X1])[Dip][dK]-NH2; disulfide 6-7), on ferroportin [1] (setting [3]), the DC50 was in the range of 10 to 100 nM. Also, at ferroportin [2] (setting [4]), the IC50 lay in the range of 10 to 100 nM.

`CC(C)CC(=O)N[C@@H](CCC(=O)O)C(=O)N[C@H](C(=O)N[C@@H](Cc1c[nH]cn1)C(=O)N[C@H](C(=O)N1CCC[C@H]1C(=O)N[C@H]1CSSC[C@@H](C(=O)N[C@@H](CCCCNC(=O)CCCCCNC(=O)C[N+](C)(C)CCNC(=O)CCCCCCCCCCCCCCCCC(=O)O)C(=O)N[C@H](CC(=O)N[C@H](CCCCN)C(N)=O)Cc2ccccc2)NC1=O)C(c1ccccc1)c1ccccc1)[C@@H](C)O` [compound 312] (Isovaleryl-ETH[Dip]PCCK([Ahx-X1])[β3hF][dK]-NH2; disulfide 6-7): the DC50 at ferroportin [1] (setting [3]) lay within 10 to 100 nM. In addition, the IC50 at ferroportin [2] (setting [4]) is 10 to 100 nM.

For `COC(=O)CC[C@H](NC(=O)CC(C)C)C(=O)N[C@H](C(=O)N[C@@H](Cc1c[nH]cn1)C(=O)N[C@H](C(=O)N1CCC[C@H]1C(=O)N[C@H]1CSSC[C@@H](C(=O)N(C)[C@@H](CCCCNC(=O)CCCCCNC(=O)C[N+](C)(C)CCNC(=O)CCCCCCCCCCCCCCCCC(=O)O)C(=O)N[C@H](C(=O)N[C@H](CCCCN)C(N)=O)C(c2ccccc2)c2ccccc2)NC1=O)C(c1ccccc1)c1ccccc1)[C@@H](C)OC` [compound 147] (Isovaleryl-E(OMe)T(Me)H[Dip]PCC[NMeK]([Ahx-X1])[Dip][dK]-NH2; disulfide 6-7), the DC50 on ferroportin [1] (setting [5]) is 10 to 100 nM. Further, on ferroportin [2] (setting [6]), the IC50 was 100 to 500 nM.

For `C[C@@H](O)[C@H](NC(=O)[C@H](CCC(=O)O)NC(=O)C1CCNCC1)C(=O)N[C@@H](Cc1c[nH]cn1)C(=O)N[C@H](C(=O)N1CCC[C@H]1C(=O)N[C@H]1CSSC[C@@H](C(=O)N(C)[C@@H](CCCCNC(=O)COCCOCCNC(=O)COCCOCCNC(=O)[C@H](CN)NC(=O)CCCCCCCCCCCCCCCCC(=O)O)C(=O)N[C@H](CC(=O)N[C@H](CCCCN)C(N)=O)Cc2ccccc2)NC1=O)C(c1ccccc1)c1ccccc1` [compound 300] (H-[Inp]ETH[Dip]PCC[NMeK]([AEEA-AEEA-Dap-C18 diacid])[β3hF][dK]-NH2; disulfide 7-8), the DC50 at ferroportin [1] (setting [3]) lay in the range of 100 to 500 nM. Moreover, on ferroportin [2] (setting [4]), the IC50 was 100 to 500 nM.

`COC(=O)CCC(CCCC(C)C)C(=O)N[C@H](C(=O)N[C@@H](Cc1c[nH]cn1)C(=O)N[C@H](C(=O)N1CCC[C@H]1C(=O)N[C@H]1CSSC[C@@H](C(=O)N(C)[C@@H](CCCCNC(=O)CCCCCNC(=O)C[N+](C)(C)CCNC(=O)CCCCCCCCCCCCCCCCC(=O)O)C(=O)N[C@H](C(=O)N[C@H](CCCCN)C(N)=O)C(c2ccccc2)c2ccccc2)NC1=O)C(c1ccccc1)c1ccccc1)[C@@H](C)O` (single isomer, unassigned) [compound 137]: the DC50 at ferroportin [1] (setting [5]) fell in the range of 10 to 100 nM. Besides, the concentration for half-maximal inhibition (IC50) on ferroportin [2] (setting [6]) lay in the range of 10 to 100 nM.

As for `CC(C)CC(=O)N[C@@H](CCC(=O)O)C(=O)N[C@H](C(=O)N[C@@H](Cc1c[nH]cn1)C(=O)N[C@H](C(=O)N1CCC[C@H]1C(=O)N[C@H]1CSSC[C@@H](C(=O)N[C@@H](CCCCNC(=O)COCCOCCNC(=O)COCCOCCNC(=O)[C@H](CN)NC(=O)CCCCCCCCCCCCCCCCC(=O)O)C(=O)N[C@H](CC(=O)N[C@H](CCCCN)C(N)=O)Cc2ccccc2)NC1=O)C(c1ccccc1)c1ccccc1)[C@@H](C)O` [Compd 41] (Isovaleryl-ETH[Dip]PCCK([AEEA-AEEA-Dap-C18 diacid])[β3hF][dK]-NH2; disulfide 6-7), on ferroportin [1] (setting [7]), the DC50 fell in the range of 10 to 100 nM. In addition, on ferroportin [2] (setting [8]), the half-inhibitory concentration (IC50) lay within 10 to 100 nM.

Consider `CCCCCCCCCCCCCCCC(=O)NCCCCCC(=O)NCCCC[C@H](NC(=O)[C@@H]1CSSC[C@H](NC(=O)[C@@H]2CCCN2C(=O)[C@@H](NC(=O)[C@H](Cc2c[nH]cn2)NC(=O)[C@@H](NC(=O)[C@H](CCC(=O)OC)NC(=O)CC(C)C)[C@@H](C)O)C(c2ccccc2)c2ccccc2)C(=O)N1)C(=O)N[C@H](CC(=O)N[C@H](CCCCN)C(N)=O)Cc1ccccc1` [Compd 40] (Isovaleryl-E(OMe)TH[Dip]PCCK([Ahx-Palmitoyl])[β3hF][dK]-NH2; disulfide 6-7), for which the DC50 at ferroportin [1] (setting [7]) is 10 to 100 nM. Also, the IC50 at ferroportin [2] (setting [8]) was in the range of 1 to 10 nM.

As to `CC[C@H](C)[C@@H](C(N)=O)N(C)C(=O)[C@@H](CCCCN)NC(=O)C[C@H](Cc1ccccc1)NC(=O)[C@H](CCCCNC(=O)COCCOCCNC(=O)COCCOCCNC(=O)[C@H](CN)NC(=O)CCCCCCCCCCCCCCCCC(=O)O)N(C)C(=O)[C@@H]1CSSC[C@H](NC(=O)[C@@H]2CCCN2C(=O)[C@@H](NC(=O)[C@H](Cc2c[nH]cn2)NC(=O)[C@@H](NC(=O)[C@H](CCC(=O)O)NC(=O)CC(C)C)[C@@H](C)O)C(c2ccccc2)c2ccccc2)C(=O)N1` [compound 262] (Isovaleryl-ETH[Dip]PCC[NMeK]([AEEA-AEEA-Dap-C18 diacid])[β3hF][dK][NMeI]-NH2; disulfide 6-7), the DC50 at ferroportin [1] (setting [3]) lay within 10 to 100 nM. For the same compound, the IC50 at ferroportin [2] (setting [4]) was 10 to 100 nM.

With `CC(C)CC(=O)N[C@@H](CCC(=O)O)C(=O)N[C@H](C(=O)N[C@@H](Cc1c[nH]cn1)C(=O)N[C@H](C(=O)N1CCC[C@H]1C(=O)N[C@H]1CSSC[C@@H](C(=O)N[C@@H](CCCCNC(=O)COCCOCCNC(=O)COCCOCCNC(=O)CCCCCNC(=O)CCCCCCCCCCCCCCCCC(=O)O)C(=O)N[C@H](CC(=O)N[C@H](CCCCN)C(N)=O)Cc2ccccc2)NC1=O)C(c1ccccc1)c1ccccc1)[C@@H](C)O` [Compd 22] (Isovaleryl-ETH[Dip]PCCK([AEEA-AEEA-Ahx-C18 diacid])[β3hF][dK]-NH2; disulfide 6-7), the DC50 at ferroportin [1] (setting [7]) fell in the range of 10 to 100 nM. Besides, at ferroportin [2] (setting [8]), the IC50 fell in the range of 10 to 100 nM.

As for `COC(=O)CC[C@H](NC(=O)CC(C)C)C(=O)N[C@@H](CO)C(=O)N[C@@H](Cc1c[nH]cn1)C(=O)N(C)[C@@H](Cc1ccccc1)C(=O)N1CCC[C@H]1C(=O)N[C@H]1CSSC[C@@H](C(=O)N(C)[C@@H](CCCCNC(=O)CCCCCNC(=O)C[N+](C)(C)CCNC(=O)CCCCCCCCCCCCCCCCC(=O)O)C(=O)N[C@H](C(=O)N[C@H](CCCCN)C(N)=O)C(c2ccccc2)c2ccccc2)NC1=O` [compound 148] (Isovaleryl-E(OMe)SH[NMeF]PCC[NMeK]([Ahx-X1])[Dip][dK]-NH2; disulfide 6-7), the DC50 at ferroportin [1] (setting [5]) was greater than 500 nM. Also, the IC50 on ferroportin [2] (setting [6]) is greater than 500 nM.

For `CC(C)CC(=O)N[C@@H](CCC(=O)O)C(=O)N[C@H](C(=O)N[C@@H](Cc1c[nH]cn1)C(=O)N[C@H](C(=O)N1CCC[C@H]1C(=O)N[C@H]1CSSC[C@@H](C(=O)N(C)[C@@H](CCCCNC(=O)COCCOCCNC(=O)COCCOCCNC(=O)[C@H](CN)NC(=O)CCCCCCCCCCCCCCCCC(=O)O)C(=O)N[C@H](CC(=O)N[C@H](CCCCN)C(=O)N[C@@H](Cc2cccc3ccccc23)C(N)=O)Cc2ccccc2)NC1=O)C(c1ccccc1)c1ccccc1)[C@@H](C)O` [compound 258] (Isovaleryl-ETH[Dip]PCC[NMeK]([AEEA-AEEA-Dap-C18 diacid])[β3hF][dK][1Nal]-NH2; disulfide 6-7), on ferroportin [1] (setting [3]), the DC50 was in the range of 10 to 100 nM. In addition, the concentration for half-maximal inhibition (IC50) at ferroportin [2] (setting [4]) fell in the range of 10 to 100 nM.
